molecular target: T1, Human complement C1s enzyme (Homo sapiens, UniProt P09871); test: Human C1s enzyme assay; type: biochemical; settings: human complement C1s enzyme 1.16 nM, substrate Z-L-Lys-SBzl 100 μM, 5 min preincubation; read-out: IC50 (Stars), C1s Inhibiting Activity
T1 sequence (P09871 438-688 limits assumed): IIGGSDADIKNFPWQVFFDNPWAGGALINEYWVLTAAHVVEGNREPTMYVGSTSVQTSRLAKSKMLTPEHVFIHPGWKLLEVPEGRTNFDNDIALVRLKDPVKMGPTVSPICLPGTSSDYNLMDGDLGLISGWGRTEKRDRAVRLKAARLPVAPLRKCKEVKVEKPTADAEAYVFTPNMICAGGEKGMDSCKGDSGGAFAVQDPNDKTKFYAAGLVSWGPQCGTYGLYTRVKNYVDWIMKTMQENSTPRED
T1 sequence (P09871 16-437 partner limits assumed): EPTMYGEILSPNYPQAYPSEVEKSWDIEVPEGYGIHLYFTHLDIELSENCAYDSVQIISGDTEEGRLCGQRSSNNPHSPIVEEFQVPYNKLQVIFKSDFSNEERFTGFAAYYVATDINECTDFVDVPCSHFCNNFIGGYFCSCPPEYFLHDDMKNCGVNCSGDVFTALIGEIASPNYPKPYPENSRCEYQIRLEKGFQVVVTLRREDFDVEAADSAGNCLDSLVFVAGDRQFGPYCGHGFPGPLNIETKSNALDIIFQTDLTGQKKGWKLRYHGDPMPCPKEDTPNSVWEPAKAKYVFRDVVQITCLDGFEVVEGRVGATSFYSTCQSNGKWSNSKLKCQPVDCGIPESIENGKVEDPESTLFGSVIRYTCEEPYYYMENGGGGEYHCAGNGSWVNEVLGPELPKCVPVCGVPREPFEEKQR
Procedure, shortened: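 IC50 from nonlinear regression of reaction rates versus compound concentration, with rates taken from A405 recorded at 30 s intervals over 30 min after adding 100 μM Z-L-Lys-SBzl plus 100 μM DTNB. Enzyme was human C1s purified from serum, 1.16 nM, given 5 min compound preincubation at room temperature, pH 7.5 Tris/1 M NaCl.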

For `CO[C@@H]1C[C@@H](C(=O)N[C@H](C)c2cc3cnccc3[nH]2)N(C(=O)CNC(=O)c2ccc3c(c2)-c2ccccc2C3(F)F)C1` [Compound 71, (2S,4R)-N-((R)-1-(1H-pyrrolo[3,2-c]pyridin-2-yl)ethyl)-1-((9,9-difluoro-9H-fluorene-3-carbonyl)glycyl)-4-methoxypyrrolidine-2-carboxamide], which IC50 is on record?
Its IC50 is under 100 nM.

With `O=C(NCC(=O)N1C[C@H](OC(F)F)C[C@H]1C(=O)NCc1ccc2[nH]ccc2c1)c1ccc2c(c1)Oc1ccccc1S2` [Compound 195, (2S,4R)-N-((1H-indol-5-yl)methyl)-4-(difluoromethoxy)-1-((phenoxathiine-3-carbonyl)glycyl)pyrrolidine-2-carboxamide] as the compound, how does the IC50 read?
Its IC50 is over 1000 nM.

How did the IC50 turn out when `CC1CCN(C(=O)CNC(=O)c2ccc3c(c2)Oc2ccccc2S3)[C@@H]1C(=O)NCc1cc2cnccc2[nH]1` (stereo partly drawn) [Compound 243, (2S)-N-((1H-pyrrolo[3,2-c]pyridin-2-yl)methyl)-3-methyl-1-((phenoxathiine-3-carbonyl)glycyl)pyrrolidine-2-carboxamide] was run?
The IC50 was over 1000 nM.

`C[C@@H](NC(=O)[C@@H]1C[C@@H](c2ccccc2)CN1C(=O)CNC(=O)c1ccc2c(c1)Oc1ccccc1S2)c1cc2cnccc2[nH]1` [Compound 169, (2S,4S)-N-((R)-1-(1H-pyrrolo[3,2-c]pyridin-2-yl)ethyl)-1-((phenoxathiine-3-carbonyl)glycyl)-4-phenylpyrrolidine-2-carboxamide] was tested. Which IC50 did it give?
Its IC50 is under 100 nM.

With `O=C(NCC(=O)N1CC2(C[C@H]1C(=O)NCc1cc3cnccc3[nH]1)OCCO2)c1cccc(Oc2ccc(F)cc2)c1` [Compound 157, (S)-N-((1H-pyrrolo[3,2-c]pyridin-2-yl)methyl)-7-((3-(4-fluorophenoxy)benzoyl)glycyl)-1,4-dioxa-7-azaspiro[4.4]nonane-8-carboxamide] as the compound, how does the IC50 read?
The IC50 was under 100 nM.

Which IC50 does the source give for `Cc1ccc(Oc2ccc(F)c(C(=O)NCC(=O)N3C[C@H](OC(F)F)C[C@H]3C(=O)NCc3cc4cnccc4[nH]3)c2)c(F)c1` [Compound 322, (2S,4R)-N-((1H-pyrrolo[3,2-c]pyridin-2-yl)methyl)-4-(difluoromethoxy)-1-((2-fluoro-5-(2-fluoro-4-methylphenoxy)benzoyl)glycyl) pyrrolidine-2-carboxamide] here?
The IC50 was under 100 nM.

With `C[C@@H](NC(=O)[C@@H]1C[C@@H](OC(F)F)CN1C(=O)CNC(=O)c1ccc(Oc2ccccc2)cc1)c1cc(B(O)O)cs1` [Compound 189, (5-((R)-1-((2S,4R)-4-(difluoromethoxy)-1-((4-phenoxybenzoyl)glycyl)pyrrolidine-2-carboxamido)ethyl)thiophen-3-yl)boronic acid] as the compound, how does the IC50 read?
The IC50 was over 1000 nM.

With `O=C(NCC(=O)N1CC2(C[C@H]1C(=O)NCc1ccc[nH]1)OCCO2)c1ccc(Oc2ccccc2)cc1` [Compound 14, (S)-N-((1H-pyrrol-2-yl)methyl)-7-((4-phenoxybenzoyl)glycyl)-1,4-dioxa-7-azaspiro[4.4]nonane-8-carboxamide] as the compound, how does the IC50 read?
The IC50 was over 1000 nM.

With `O=C(NCC(=O)N1CC[C@@H](O)[C@H]1C(=O)NCc1cc2cnccc2[nH]1)c1ccc(Oc2ccccc2)cc1` [Compound 151, (2S,3R)-N-((1H-pyrrolo[3,2-c]pyridin-2-yl)methyl)-3-hydroxy-1-((4-phenoxybenzoyl)glycyl)pyrrolidine-2-carboxamide] as the compound, how does the IC50 read?
Its IC50 is 100 to 1000 nM.

Which IC50 does the source give for `CCc1ccc(Oc2cc(F)cc(C(=O)NCC(=O)N3C[C@@](F)(Cn4ccnc4)C[C@H]3C(=O)NCc3cc4cnccc4[nH]3)c2)cc1` [Compound 372, (2S,4S)-4-((1H-imidazol-1-yl)methyl)-N-((1H-pyrrolo[3,2-c]pyridin-2-yl)methyl)-1-((3-(4-ethylphenoxy)-5-fluorobenzoyl)glycyl)-4-fluoropyrrolidine-2-carboxamide] here?
Its IC50 is under 100 nM.

For `C[C@@H](NC(=O)[C@@H]1CC2(CCCC2)CN1C(=O)CNC(=O)c1ccc2c(c1)Oc1ccccc1S2)c1cc2cnccc2[nH]1` [Compound 131, (S)-N-((R)-1-(1H-pyrrolo[3,2-c]pyridin-2-yl)ethyl)-2-((phenoxathiine-3-carbonyl)glycyl)-2-azaspiro[4.4]nonane-3-carboxamide], which IC50 is on record?
The IC50 was under 100 nM.

Which IC50 does the source give for `C[C@@H](NC(=O)C1C[C@H](COCCCCCC(=O)O)CN1C(=O)CNC(=O)c1ccc2c(c1)Oc1ccccc1S2)c1cc2cnccc2[nH]1` (stereo partly drawn) [Compound 204, 6-(((3S)-5-(((R)-1-(1H-pyrrolo[3,2-c]pyridin-2-yl)ethyl)carbamoyl)-1-((phenoxathiine-3-carbonyl)glycyl)pyrrolidin-3-yl)methoxy)hexanoic acid] here?
The IC50 was under 100 nM.

How did the IC50 turn out when `O=C(NCC(=O)N1CC2(C[C@H]1C(=O)NCc1cc3c(Cl)nccc3[nH]1)OCCO2)c1ccc2c(c1)Oc1ccccc1S2` [Compound 42, (S)-N-((4-chloro-1H-pyrrolo[3,2-c]pyridin-2-yl)methyl)-7-((phenoxathiine-3-carbonyl)glycyl)-1,4-dioxa-7-azaspiro[4.4]nonane-8-carboxamide] was run?
The IC50 was over 1000 nM.

Which IC50 does the source give for `O=C(NCC(=O)N1C[C@H](OC(F)F)C[C@H]1C(=O)NCc1cnc2[nH]ccc2c1)c1ccc2c(c1)Oc1ccccc1S2` [Compound 247] here?
Its IC50 is 100 to 1000 nM.

Which IC50 does the source give for `O=C(NCC(=O)N1CC2(C[C@H]1C(=O)NCc1nc3cnccc3s1)OCCO2)c1ccc2c(c1)Oc1ccccc1S2` [Compound 41, (S)-7-((phenoxathiine-3-carbonyl)glycyl)-N-(thiazolo[4,5-c]pyridin-2-ylmethyl)-1,4-dioxa-7-azaspiro[4.4]nonane-8-carboxamide] here?
Its IC50 is over 1000 nM.

For `COC[C@@]1(F)C[C@@H](C(=O)N[C@H](CO)c2cc3cnccc3[nH]2)N(C(=O)CNC(=O)c2ccc(Oc3ccc(F)cc3)cc2)C1` [Compound 97, (2S,4R)-4-fluoro-1-((4-(4-fluorophenoxy)benzoyl)glycyl)-N-((S)-2-hydroxy-1-(1H-pyrrolo[3,2-c]pyridin-2-yl)ethyl)-4-(methoxymethyl) pyrrolidine-2-carboxamide], which IC50 is on record?
Its IC50 is over 1000 nM.

Which IC50 does the source give for `COC[C@@]1(F)C[C@@H](C(=O)N[C@H](C)c2cc3cnccc3[nH]2)N(C(=O)CNC(=O)c2ccc(-c3ccccc3)cc2)C1` [Compound 83, (2S,4R)-N-((R)-1-(1H-pyrrolo[3,2-c]pyridin-2-yl)ethyl)-1-(([1,1′-biphenyl]-4-carbonyl)glycyl)-4-fluoro-4-(methoxymethyl)pyrrolidine-2-carboxamide] here?
The IC50 was 100 to 1000 nM.

`O=C(NCC(=O)N1C[C@@](F)(CF)C[C@H]1C(=O)N[C@H](CO)c1cc2cnccc2[nH]1)c1ccc(Oc2ccc(F)cc2)cc1` [Compound 95, (2S,4R)-4-fluoro-4-(fluoromethyl)-1-((4-(4-fluorophenoxy)benzoyl)glycyl)-N-((S)-2-hydroxy-1-(1H-pyrrolo[3,2-c]pyridin-2-yl)ethyl)pyrrolidine-2-carboxamide] was tested. Which IC50 did it give?
Its IC50 is over 1000 nM.

How did the IC50 turn out when `O=C(NCC(=O)N1CC2(C[C@H]1C(=O)NCc1cc3cnccc3[nH]1)OCCO2)c1ccc(Oc2ccc(Cl)c(Cl)c2)o1` [Compound 287, (S)-N-((1H-pyrrolo[3,2-c]pyridin-2-yl)methyl)-7-((5-(3,4-dichlorophenoxy)furan-2-carbonyl)glycyl)-1,4-dioxa-7-azaspiro[4.4]nonane-8-carboxamide] was run?
Its IC50 is under 100 nM.

For `C[C@@H](NC(=O)[C@@H]1C[C@@H](OC(F)F)CN1C(=O)CNC(=O)c1cnc2c(c1)Oc1ccccc1S2)c1cc2cnccc2[nH]1` [Compound 283, N-[2-[(2S,4R)-4-(difluoromethoxy)-2-[[(1R)-1-(1H-pyrrolo[3,2-c]pyridin-2-yl)ethyl]carbamoyl]pyrrolidin-1-yl]-2-oxo-ethyl]-[1,4]benzoxathiino[3,2-b]pyridine-3-carboxamide], which IC50 is on record?
The IC50 was under 100 nM.
